Experimental data: ChEMBL document CHEMBL1201862, “PubChem BioAssay data set” (2004)
Active and inactive are the calls of the source.

Tests used:
Hexokinase = molecular target: T1, Hexokinase (Trypanosoma brucei, UniProt Q38C41); experiment: Confirmation assay for inhibitors of Trypanosoma brucei hexokinase 1-Analogue-first series. [Related pubchem assays (depositor defined):AID1430, AID1632, AID2516, AID2560, AID2579, AID2600, AID449725, AID492951]; assay type: functional
T1 sequence (Q38C41 whole entry): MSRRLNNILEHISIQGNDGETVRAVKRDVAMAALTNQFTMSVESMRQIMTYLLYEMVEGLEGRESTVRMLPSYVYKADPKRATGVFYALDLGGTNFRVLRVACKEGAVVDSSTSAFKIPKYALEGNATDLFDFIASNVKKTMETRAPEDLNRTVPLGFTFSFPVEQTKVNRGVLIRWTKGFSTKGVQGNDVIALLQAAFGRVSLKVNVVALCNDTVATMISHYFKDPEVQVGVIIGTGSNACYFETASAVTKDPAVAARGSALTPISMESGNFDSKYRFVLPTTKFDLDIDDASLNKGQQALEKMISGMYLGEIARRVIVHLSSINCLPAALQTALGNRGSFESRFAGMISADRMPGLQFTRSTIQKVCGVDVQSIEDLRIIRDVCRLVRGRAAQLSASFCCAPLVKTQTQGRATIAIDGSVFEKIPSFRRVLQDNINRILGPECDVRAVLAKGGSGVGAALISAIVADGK

[1] = molecular target: Alkaline phosphatase, placental type (Homo sapiens, UniProt P05187); experiment: PLAP enzyme inhibitors, confirmation, biochemical, luminescence (AID 1512); assay type: functional
Sequence of Alkaline phosphatase, placental type (P05187 whole entry): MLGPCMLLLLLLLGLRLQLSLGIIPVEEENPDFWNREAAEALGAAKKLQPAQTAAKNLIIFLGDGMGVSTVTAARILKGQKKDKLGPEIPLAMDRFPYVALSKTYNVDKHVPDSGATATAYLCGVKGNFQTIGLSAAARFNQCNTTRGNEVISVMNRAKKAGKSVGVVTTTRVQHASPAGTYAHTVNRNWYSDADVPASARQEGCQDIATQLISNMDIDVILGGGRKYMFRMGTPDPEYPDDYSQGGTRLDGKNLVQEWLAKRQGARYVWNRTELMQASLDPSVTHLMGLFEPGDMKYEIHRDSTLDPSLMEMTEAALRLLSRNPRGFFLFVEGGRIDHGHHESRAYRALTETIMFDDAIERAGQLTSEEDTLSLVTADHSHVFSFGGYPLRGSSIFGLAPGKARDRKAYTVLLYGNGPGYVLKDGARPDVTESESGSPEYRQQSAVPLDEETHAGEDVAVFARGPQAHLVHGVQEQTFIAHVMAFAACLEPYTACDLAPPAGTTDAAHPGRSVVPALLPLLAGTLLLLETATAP

[2] = molecular target: T2, Alkaline phosphatase, tissue-nonspecific isozyme (Homo sapiens, UniProt P05186); experiment: human TNAP enzyme inhibitors, SAR follow-up, biochemical, luminescent, dose response (AID 1056)
T2 sequence (P05186 whole entry): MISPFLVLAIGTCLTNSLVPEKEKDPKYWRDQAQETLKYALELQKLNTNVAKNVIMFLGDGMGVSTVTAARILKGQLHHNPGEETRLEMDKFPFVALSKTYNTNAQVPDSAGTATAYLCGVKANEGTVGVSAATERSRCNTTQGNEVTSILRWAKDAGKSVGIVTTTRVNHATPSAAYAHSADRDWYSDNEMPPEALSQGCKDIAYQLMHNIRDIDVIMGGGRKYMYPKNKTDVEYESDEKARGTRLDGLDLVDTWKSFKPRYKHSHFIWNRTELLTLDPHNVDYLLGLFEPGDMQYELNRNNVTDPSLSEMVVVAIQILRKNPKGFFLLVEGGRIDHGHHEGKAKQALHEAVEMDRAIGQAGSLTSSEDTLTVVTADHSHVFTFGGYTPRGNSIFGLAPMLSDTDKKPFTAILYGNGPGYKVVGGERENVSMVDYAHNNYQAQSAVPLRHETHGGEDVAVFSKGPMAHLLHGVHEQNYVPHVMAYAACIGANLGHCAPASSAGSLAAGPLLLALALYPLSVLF

[3] = molecular target: DNA dC->dU-editing enzyme APOBEC-3G (Homo sapiens, UniProt Q9HC16); assay type: functional;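 further: Dose-response counterscreen measuring inhibition of APOBEC3G DNA deaminase activity, run while confirming APOBEC3A inhibitors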
Sequence of DNA dC->dU-editing enzyme APOBEC-3G (Q9HC16 whole entry): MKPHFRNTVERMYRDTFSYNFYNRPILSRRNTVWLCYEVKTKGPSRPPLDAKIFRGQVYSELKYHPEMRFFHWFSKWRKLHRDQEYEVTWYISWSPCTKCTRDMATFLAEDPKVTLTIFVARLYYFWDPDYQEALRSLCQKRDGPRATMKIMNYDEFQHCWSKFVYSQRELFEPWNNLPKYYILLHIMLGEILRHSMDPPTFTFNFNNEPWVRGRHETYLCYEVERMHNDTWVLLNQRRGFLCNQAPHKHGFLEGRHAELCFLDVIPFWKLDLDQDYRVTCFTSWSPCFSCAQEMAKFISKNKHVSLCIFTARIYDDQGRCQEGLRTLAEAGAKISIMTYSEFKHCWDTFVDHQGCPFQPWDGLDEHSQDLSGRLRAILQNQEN

[4] = molecular target: DNA dC->dU-editing enzyme APOBEC-3A (Homo sapiens, UniProt P31941); experiment: Dose Response confirmation of small molecule APOBEC3A DNA Deaminase Inhibitors via a fluorescence-based single-stranded DNA deaminase assay. [Related pubchem assays (depositor defined):AID493011, AID493024]; assay type: functional
Sequence of DNA dC->dU-editing enzyme APOBEC-3A (P31941 whole entry): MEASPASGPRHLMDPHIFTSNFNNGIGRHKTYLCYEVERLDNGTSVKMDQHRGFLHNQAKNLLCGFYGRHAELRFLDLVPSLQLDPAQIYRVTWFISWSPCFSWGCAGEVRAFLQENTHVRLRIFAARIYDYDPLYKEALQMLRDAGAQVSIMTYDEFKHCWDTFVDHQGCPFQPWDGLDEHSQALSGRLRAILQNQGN

[5] = molecular target: T3, Ubiquitin-conjugating enzyme E2 N (Homo sapiens, UniProt P61088); assay type: functional
T3 sequence (P61088 whole entry): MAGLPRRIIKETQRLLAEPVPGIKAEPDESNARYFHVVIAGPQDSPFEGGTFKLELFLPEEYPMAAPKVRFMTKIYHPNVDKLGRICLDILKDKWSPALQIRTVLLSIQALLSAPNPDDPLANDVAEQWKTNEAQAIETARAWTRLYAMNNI

Bcl-2-related protein A1 = molecular target: T4, Bcl-2-related protein A1 (Mus musculus, UniProt Q07440); assay type: functional;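 further: confirmatory dose–response counterscreen on Bfl-1, used to check hits from a UBC13 polyubiquitin inhibitor campaign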
T4 sequence (Q07440 whole entry): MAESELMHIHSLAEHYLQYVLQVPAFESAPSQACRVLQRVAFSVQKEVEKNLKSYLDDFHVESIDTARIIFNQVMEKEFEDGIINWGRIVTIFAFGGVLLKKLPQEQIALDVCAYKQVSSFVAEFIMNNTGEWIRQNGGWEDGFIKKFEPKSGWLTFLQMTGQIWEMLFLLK

[6] = molecular target: T3, Ubiquitin-conjugating enzyme E2 N; assay type: functional; remark: listed apart in the source
T-cell = experiment: inhibitors of CD8+ T cell–vesicle binding, dose response, mouse 2C CD8+ T cells, flow cytometry (AID 485284); assay type: functional
Cytochrome P450 2C19 = Cytochrome P450 2C19 (Homo sapiens, UniProt P33261); experiment: Cytochrome panel assay with activity outcomes. Panel member name: p450-cyp2c19 Compounds with AC50 equal or less than 10 uM are considered active; assay type: functional
Sequence of Cytochrome P450 2C19 (P33261 whole entry): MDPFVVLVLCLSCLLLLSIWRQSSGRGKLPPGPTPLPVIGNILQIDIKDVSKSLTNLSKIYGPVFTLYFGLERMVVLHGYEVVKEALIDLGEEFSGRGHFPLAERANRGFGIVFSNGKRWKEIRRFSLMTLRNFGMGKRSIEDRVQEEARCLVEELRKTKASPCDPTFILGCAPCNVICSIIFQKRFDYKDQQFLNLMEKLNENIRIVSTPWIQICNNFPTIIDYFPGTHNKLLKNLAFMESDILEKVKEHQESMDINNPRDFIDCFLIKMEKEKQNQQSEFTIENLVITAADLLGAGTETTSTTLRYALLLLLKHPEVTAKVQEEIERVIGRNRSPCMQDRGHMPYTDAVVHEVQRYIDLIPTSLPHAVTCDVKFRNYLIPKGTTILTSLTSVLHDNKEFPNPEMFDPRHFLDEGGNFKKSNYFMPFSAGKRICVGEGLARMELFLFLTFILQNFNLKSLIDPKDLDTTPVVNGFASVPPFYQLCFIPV

Cytochrome P450 2D6 = Cytochrome P450 2D6 (Homo sapiens, UniProt P10635);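 further: CYP2D6 member of a cytochrome P450 panel assay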
Sequence of Cytochrome P450 2D6 (P10635 whole entry): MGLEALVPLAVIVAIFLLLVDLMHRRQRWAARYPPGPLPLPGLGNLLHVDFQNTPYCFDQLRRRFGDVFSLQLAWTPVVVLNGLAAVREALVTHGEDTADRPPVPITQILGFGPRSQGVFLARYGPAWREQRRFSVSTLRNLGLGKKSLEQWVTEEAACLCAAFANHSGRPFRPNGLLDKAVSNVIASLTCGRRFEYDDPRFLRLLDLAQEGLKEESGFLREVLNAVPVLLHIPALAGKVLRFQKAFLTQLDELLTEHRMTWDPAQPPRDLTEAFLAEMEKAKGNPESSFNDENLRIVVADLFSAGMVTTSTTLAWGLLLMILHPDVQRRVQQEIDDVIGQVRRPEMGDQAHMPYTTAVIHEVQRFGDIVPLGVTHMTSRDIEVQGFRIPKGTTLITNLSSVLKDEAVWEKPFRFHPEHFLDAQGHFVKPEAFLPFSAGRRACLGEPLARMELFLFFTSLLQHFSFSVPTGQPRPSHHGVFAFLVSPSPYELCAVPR

[7] = cytotoxicity toward DRD oncogenic fibroblasts, dose response, cell-based, non-viral oncogenic, luminescence (AID 1934); assay type: functional; conditions: Homo sapiens
BJ [8] = experiment: cytotoxicity toward BJ-TERT-LT-ST fibroblasts, dose response, cell-based, RAS-independent, luminescence (AID 1935); assay type: functional; conditions: Homo sapiens;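 further: BJ fibroblasts immortalized with TERT plus LT and ST oncogenes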
SUMO-activating enzyme = SUMO-activating enzyme (Homo sapiens, UniProt Q9UBT2); experiment: SUMOylation inhibitor hit validation, confirmation, SUMOylation inhibitor project, biochemical, AlphaScreen (AID 2018); assay type: functional
Sequence of SUMO-activating enzyme (Q9UBE0 whole entry): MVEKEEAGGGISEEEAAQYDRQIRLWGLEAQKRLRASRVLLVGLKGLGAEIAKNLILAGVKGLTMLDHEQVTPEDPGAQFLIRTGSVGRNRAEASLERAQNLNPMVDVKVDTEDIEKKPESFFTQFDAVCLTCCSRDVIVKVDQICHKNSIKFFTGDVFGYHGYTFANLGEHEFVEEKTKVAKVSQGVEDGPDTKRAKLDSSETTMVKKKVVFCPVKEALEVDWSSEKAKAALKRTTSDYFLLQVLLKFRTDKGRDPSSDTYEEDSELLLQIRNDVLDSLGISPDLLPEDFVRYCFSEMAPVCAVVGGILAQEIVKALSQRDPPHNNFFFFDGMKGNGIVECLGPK
Sequence of SUMO-activating enzyme (Q9UBT2 whole entry): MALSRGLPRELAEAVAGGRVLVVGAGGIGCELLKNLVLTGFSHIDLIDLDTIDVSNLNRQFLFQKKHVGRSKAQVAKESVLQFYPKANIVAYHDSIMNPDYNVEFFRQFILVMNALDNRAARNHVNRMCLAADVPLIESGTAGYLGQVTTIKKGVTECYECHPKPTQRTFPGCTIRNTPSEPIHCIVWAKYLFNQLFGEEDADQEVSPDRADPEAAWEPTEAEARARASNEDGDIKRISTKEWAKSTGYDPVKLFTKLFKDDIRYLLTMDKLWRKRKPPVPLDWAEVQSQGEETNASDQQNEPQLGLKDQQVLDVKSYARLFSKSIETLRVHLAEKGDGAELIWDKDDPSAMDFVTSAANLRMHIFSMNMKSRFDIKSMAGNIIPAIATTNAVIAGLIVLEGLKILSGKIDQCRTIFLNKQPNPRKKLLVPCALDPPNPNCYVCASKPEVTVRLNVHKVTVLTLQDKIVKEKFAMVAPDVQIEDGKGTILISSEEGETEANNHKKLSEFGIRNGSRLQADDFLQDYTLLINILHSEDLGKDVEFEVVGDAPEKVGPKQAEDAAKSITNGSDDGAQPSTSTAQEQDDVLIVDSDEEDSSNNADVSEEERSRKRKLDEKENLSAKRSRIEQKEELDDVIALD

BJ [9] = experiment: cytotoxicity toward BJ-TERT fibroblasts, dose response, cell-based, RAS-independent, luminescence (AID 1933); assay type: functional; conditions: Homo sapiens
BJ [10] = experiment: cells; assay type: functional, cell-based; conditions: Homo sapiens
Caspase-6 = molecular target: T5, Caspase-6 (Homo sapiens, UniProt P55212); experiment: human caspase-6 inhibitors, dose response, biochemical, VEID-R110 fluorescence, cherry-pick (AID 720632)
T5 sequence (P55212 whole entry): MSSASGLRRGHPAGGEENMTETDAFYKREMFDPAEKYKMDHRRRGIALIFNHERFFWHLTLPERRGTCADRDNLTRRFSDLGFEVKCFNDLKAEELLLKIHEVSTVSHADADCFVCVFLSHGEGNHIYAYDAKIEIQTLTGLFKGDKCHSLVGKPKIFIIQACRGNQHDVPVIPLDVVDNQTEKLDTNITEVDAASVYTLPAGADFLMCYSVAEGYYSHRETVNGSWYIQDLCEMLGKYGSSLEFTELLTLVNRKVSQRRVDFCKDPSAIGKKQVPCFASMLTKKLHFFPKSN

Streptokinase A = molecular target: T6, Streptokinase A (Streptococcus pyogenes serotype M1, UniProt P10520); experiment: S. pyogenes streptokinase expression inhibitors, potency, dose response, plasminogen activation absorbance, OD405 (AID 1914); assay type: functional, Streptococcus pyogenes M1 GAS;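 further: secreted streptokinase activity via plasminogen activation per viability signal from cell pellet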
T6 sequence (P10520 whole entry): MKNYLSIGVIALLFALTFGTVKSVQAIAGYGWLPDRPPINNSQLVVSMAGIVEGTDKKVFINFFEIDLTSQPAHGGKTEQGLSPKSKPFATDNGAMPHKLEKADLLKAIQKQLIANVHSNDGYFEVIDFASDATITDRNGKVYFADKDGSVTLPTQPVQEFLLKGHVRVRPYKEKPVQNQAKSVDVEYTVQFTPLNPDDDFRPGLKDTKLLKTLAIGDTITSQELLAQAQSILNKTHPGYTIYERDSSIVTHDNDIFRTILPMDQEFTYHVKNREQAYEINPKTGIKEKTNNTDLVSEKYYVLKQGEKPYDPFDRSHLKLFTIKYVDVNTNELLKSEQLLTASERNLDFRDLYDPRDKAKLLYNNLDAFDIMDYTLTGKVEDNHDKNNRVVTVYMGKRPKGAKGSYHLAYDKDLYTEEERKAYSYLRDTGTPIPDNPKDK

CAAX prenyl protease 2 = molecular target: T7, CAAX prenyl protease 2 (Saccharomyces cerevisiae S288c, UniProt Q03530); assay type: biochemical
T7 sequence (Q03530 whole entry): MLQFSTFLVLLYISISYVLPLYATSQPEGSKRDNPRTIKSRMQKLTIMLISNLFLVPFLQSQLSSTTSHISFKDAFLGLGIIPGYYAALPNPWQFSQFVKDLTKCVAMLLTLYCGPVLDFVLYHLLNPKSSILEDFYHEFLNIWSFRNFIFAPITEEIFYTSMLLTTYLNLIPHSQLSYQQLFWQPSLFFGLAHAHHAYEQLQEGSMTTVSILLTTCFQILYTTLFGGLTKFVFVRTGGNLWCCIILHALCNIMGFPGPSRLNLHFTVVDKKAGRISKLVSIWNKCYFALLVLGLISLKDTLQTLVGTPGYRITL

[11] = system: Streptococcus sp. 'group A'; experiment: growth inhibition of control SK(-) GAS strain, dose response, counter-screen for streptokinase expression inhibitor project, luminescence, kanamycin, BacTiterGlo, confirmation (AID 1900); assay type: functional, organism-based
Streptococcus = experiment: Group A Streptococcus viability loss, dose response, counter-screen for streptokinase expression inhibitor project, luminescence, BacTiterGlo (AID 1915); assay type: functional, organism-based;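 further: potency for reduction of bacterial viability or growth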
Coagulation factor XII = molecular target: T8, Coagulation factor XII (Homo sapiens, UniProt P00748); assay type: functional;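 further: activated factor XIIa alpha cleaving a fluorogenic AMC peptide substrate; inhibitor potency from loss of enzyme activity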
T8 sequence (P00748 whole entry): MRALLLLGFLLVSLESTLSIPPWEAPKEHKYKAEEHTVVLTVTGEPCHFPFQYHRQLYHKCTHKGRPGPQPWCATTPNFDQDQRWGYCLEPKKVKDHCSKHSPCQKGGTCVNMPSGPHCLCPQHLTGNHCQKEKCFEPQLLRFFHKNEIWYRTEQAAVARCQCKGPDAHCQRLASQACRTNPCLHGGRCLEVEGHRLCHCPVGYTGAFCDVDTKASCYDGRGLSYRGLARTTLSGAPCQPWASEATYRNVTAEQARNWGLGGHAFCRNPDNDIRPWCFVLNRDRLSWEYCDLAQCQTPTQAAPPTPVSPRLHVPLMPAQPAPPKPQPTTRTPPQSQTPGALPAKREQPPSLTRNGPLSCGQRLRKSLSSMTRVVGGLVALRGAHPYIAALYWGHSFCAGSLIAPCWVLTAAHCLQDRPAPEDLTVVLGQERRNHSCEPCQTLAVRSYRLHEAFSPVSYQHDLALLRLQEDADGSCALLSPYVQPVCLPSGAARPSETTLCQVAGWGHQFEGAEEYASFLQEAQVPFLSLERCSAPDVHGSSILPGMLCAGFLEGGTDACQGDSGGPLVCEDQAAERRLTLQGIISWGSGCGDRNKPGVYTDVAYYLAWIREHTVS

Cytochrome P450 1A2 = molecular target: T9, Cytochrome P450 1A2 (Homo sapiens, UniProt P05177);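 further: PubChem cytochrome P450 panel assay, CYP1A2 panel member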
T9 sequence (P05177 whole entry): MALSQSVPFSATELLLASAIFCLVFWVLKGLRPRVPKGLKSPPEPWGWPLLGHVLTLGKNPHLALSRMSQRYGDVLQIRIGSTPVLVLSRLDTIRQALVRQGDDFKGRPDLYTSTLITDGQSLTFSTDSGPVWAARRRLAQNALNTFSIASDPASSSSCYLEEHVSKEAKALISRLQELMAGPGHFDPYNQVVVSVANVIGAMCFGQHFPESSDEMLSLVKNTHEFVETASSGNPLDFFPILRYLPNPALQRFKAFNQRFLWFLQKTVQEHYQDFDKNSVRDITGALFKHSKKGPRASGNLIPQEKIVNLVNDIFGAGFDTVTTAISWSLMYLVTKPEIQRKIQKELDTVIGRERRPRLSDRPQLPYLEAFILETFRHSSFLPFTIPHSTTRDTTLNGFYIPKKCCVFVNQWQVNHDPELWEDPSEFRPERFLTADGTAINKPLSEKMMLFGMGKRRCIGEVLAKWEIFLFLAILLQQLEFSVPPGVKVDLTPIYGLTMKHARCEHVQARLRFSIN

COc1ccc(C(=O)Nc2cnccc2C(=O)O)cc1
IC50 (Hexokinase): > 25 µM (inactive)

CCCCN1C(=O)/C(=N\Nc2ccccc2C(F)(F)F)c2ccccc21
IC50 [1]: 49.7 µM (active) | IC50 [2]: 73.8 µM (active)

CCN1C(NCCCOC(C)C)=N[C@@H](c2ccccc2)[C@H](C(=O)OC)[C@H]1C
IC50 [3]: 7.19 µM (active) | IC50 [4]: 3.99 µM (active)

COc1ccc(C(=O)Nn2c(C)nc3ccccc3c2=O)cc1
IC50 [5]: 6.37 µM (active) | IC50 (Bcl-2-related protein A1): > 20 µM (inactive) | IC50 [6]: 10.6 µM (active)

COCCCN1CCc2nc(S)nc(O)c2C1
EC50 (T-cell): 0.594 µM (active)

COc1ccc(C(=O)N(C)c2cc(Cl)ccc2C(=O)O)cc1
IC50 (Hexokinase): > 25 µM (inactive)

COc1ccc(N(C(=O)c2snc(C(N)=O)c2N)C(C(=O)NC2CCCC2)c2ccco2)cc1OC (configuration not stated)
IC50 [5]: 7.43 µM (active) | IC50 (Bcl-2-related protein A1): > 20 µM (inactive) | IC50 [6]: 12 µM (active)

Cc1ccc(N2CC(C(=O)NC3=NCCS3)CC2=O)cc1 (configuration not stated)
EC50 (T-cell): 22.1 µM (active)

Cn1c(=O)c2nc(CCCCc3nc4ccccc4[nH]3)[nH]c2n(C)c1=O
AC50 (Cytochrome P450 2C19): inconclusive | AC50 (Cytochrome P450 2D6): inconclusive

O=C(N/N=C/c1ccc([N+](=O)[O-])o1)c1cc(-c2ccc(-c3ccccc3)cc2)nc2ccccc12
EC50 [7]: 8.03 µM (inconclusive) | EC50 (BJ [8]): 11.2 µM (active) | IC50 (SUMO-activating enzyme): 15.4 µM (active) | EC50 (BJ [9]): 9.46 µM (inconclusive) | EC50 (BJ [10]): 4.52 µM (inconclusive)

O=C(O)c1ccc2c3c(cccc13)C(=O)N(c1ccccc1)C2=O
AC50 (Caspase-6): 11.9 µM (active) | IC50 [3]: 37.5 µM (active) | IC50 [4]: 14 µM (active)

Cc1cc(Cl)c2oc(C(=O)N3CCN(C(=O)c4ccco4)CC3)c(C)c2c1
EC50 (Streptokinase A): > 150 µM (not active) | AC50 (CAAX prenyl protease 2): 21.7 µM (active) | EC50 [11]: 3.4 µM (active) | EC50 (Streptococcus): 24.7 µM (active)

Cc1nc2nc(C)n(-c3ccccc3)c2s1
IC50 [3]: 6.72 µM (active) | IC50 [4]: 17.7 µM (active)

CCOc1ncccc1C(=O)OCC(=O)Nc1ccc(C(N)=O)cc1
IC50 (Coagulation factor XII): > 50 µM (inactive)

COc1ccc(CCNC(=O)CCn2c(=O)c3ccccc3n(CC(=O)NCC3CCCO3)c2=O)cc1OC (configuration not stated)
IC50 (Coagulation factor XII): > 50 µM (inactive)

CCCCN=C(S)NNC(=O)c1nn(C)c(C)c1Cl
IC50 [1]: > 100 µM (inactive)

CCN=C=NCCCN(C)C
AC50 (Cytochrome P450 1A2): 5.01 µM (inconclusive) | AC50 (Cytochrome P450 2D6): inconclusive

O=C1Nc2ccccc2/C1=C\NCCc1ccc(O)c(O)c1
IC50 [1]: 0.374 µM (active) | IC50 [2]: 2.54 µM (active)
